Measured values published in patent publication US7566453B2, “Methods for treating melanomas” (Chugai Seiyaku Kabushiki Kaisha, priority 1998, dated 2009).

Test system: KPMM2 cells
Settings: fixed concentration of anti-human IL-6 receptor antibody; 0.1 or 1 ng/ml IL-6 (FIG. 1 to 6)
Experimental: The effects of anti-human IL-6 receptor antibody on sensitivity of KPMM2 cells to chemotherapeutic agents used for treatment of myeloma such as adriamycin (ADR, manufactured by Kyowa Hakko), vincristine (VCR, manufactured by Sigma Chemical Co.), and melphalan (L-PAM, manufactured by Sigma Chemical Co.) were evaluated.
KPMM2 is a multiple myeloma cell line derived from the ascites of a human patient with myeloma (see Japanese Unexamined Patent Publication (Kokai) No. 7-236475). […] The growth activity of the cell was evaluated by incorporation of ^3H-labeled thymidine (manufactured by Amersham) into the cell.
The KPMM2 cells that had been maintained were washed thoroughly with a fresh medium (RPMI1640 medium supplemented with 20% FBS), and then were adjusted to 4×10^5/ml, which was dispensed in 50 μl aliquots in a 96-well flat-bottomed microtiter plate (manufactured by Falcon). Furthermore, a medium containing a recombinant human IL-6 (Asagoe, Y. et al., Bio/Technology (1988) 6, 806-809), anti-human IL-6 receptor antibody hPM-1 (see the above reference example 1 or International Patent Application WO 92-15759), and the above chemotherapeutic agents or a fresh medium as control were added to make 200 μl in each well.
The plate was incubated at 37° C. for 4 days under the humidified condition in the presence of 5% CO2. At four hours before the end of incubation, 10 μl of ^3H-labeled thymidine solution (100 μCi/ml) was added to each well, and then incubated for more 4 hours. At the end of incubation, the cells were collected onto the glass filter (manufactured by Printed Filtermat A, WALLAC) using a harvester (Micro 96 Harvester, manufactured by SKATRON Instruments). The radioactivity incorporated into the cells was measured by a microbeta (1450 MicroBeta, manufactured by WALLAC).
The activity of growth inhibition on KPMM2 was expressed using the effect by a chemotherapeutic agent alone as the control. Using the incorporation of ^3H-labeled thymidine into the cell for each experimental group in which a each concentration of a chemotherapeutic agent was added as 100, the amount of ^3H-labeled thymidine incorporated into the cell in an experimental group in which anti-human IL-6 receptor antibody was simultaneously added was compared as an index.

Row | SMILES | relationship of growth index with the concentration of chemotherapeutic agent
1 | COc1cccc2c1C(=O)c1c(O)c3c(c(O)c1C2=O)C[C@@](O)(C(=O)CO)C[C@@H]3O[C@H]1C[C@H](N)[C@H](O)[C@H](C)O1 [adriamycin] | almost constant regardless of their concentration
2 | CC[C@]1(O)C[C@H]2CN(CCc3c([nH]c4ccccc34)[C@@](C(=O)OC)(c3cc4c(cc3OC)N(C=O)[C@H]3[C@@](O)(C(=O)OC)[C@H](OC(C)=O)[C@]5(CC)C=CCN6CC[C@]43[C@@H]65)C2)C1 [vincristine] | almost constant regardless of their concentration
